Tests used:
FMS = target: T1, FMS (Homo sapiens, UniProt P07333); test: In vitro kinase inhibition assay (HotSpot, Reaction Biology); format: biochemical; settings: for inhibition at 10 µM: single dose of 10 µM, 10 µM ATP as printed, read-out: Percent Inhibition, FMS
T1 construct: purchased Reaction Biology Corp
Protocol: The in vitro kinase inhibition assay was carried out by Reaction Biology Corp. (Reaction Biology Corp., Chester, PA, USA) Kinase HotSpot^SM service (http://www.reactionbiology.com, accessed on 15 January 2021), following the previously reported methods. (For details, see Supplementary Material).
As mentioned in the introduction, to get insights about the kinase inhibition profile of the hybrid small molecule 5a, an in vitro screening over a panel of 14 cancer-related kinases was carried out. Accordingly, 10 µM concentrations of compound 5a were used in a kinase inhibition assay over various kinase groups and families in the presence of 10 µM ATP using HotSpotSM technology. To get a comprehensive picture of the inhibitory activities of the tested compound (5a) against the kinase panel, data are illustrated in Table 1. […] Compound 5a was also able to suppress the kinase activity of the epidermal growth factor receptor (EGFR), platelet-derived growth factor receptor-alpha (PDGFRα), and cyclin-dependent kinase 2 (CDK2) with modest inhibition values of 26.99 ± 0.9, 24.0 ± 0.4, and 20.1 ± 0.1%, respectively. […] Several studies have confirmed direct relationships between the most affected kinases (FMS, LCK, LYN, and DAPK1) and different human disorders including cancer.
5. Protocol of Kinase assay
Kinases inhibitory activities were assessed by the HotSpot assay platform, which contained specific kinase/substrate pairs along with required cofactors. Base reaction buffer: 20 mM Hepes (pH 7.5), 10 mM MgCl2, 1 mM EGTA, 0.02% Brij35, 0.02 mg/ml BSA, 0.1 mM Na3VO4, 2 mM DTT, 1% DMSO. Testing compounds were dissolved in 100% DMSO to specific concentration. The serial dilution was conducted by Integra Viaflo Assist in DMSO. The reaction mixture containing the examined compound and 33P-ATP was incubated at room temperature for 2h and radioactivity was detected by filter-binding method. Kinase activity data were expressed as the percent remaining kinase activity in test samples compared to vehicle (dimethyl sulfoxide) reactions. IC50 values and curve fits were obtained using Prism (GraphPad Software).

SR = test: NCI growth inhibition (SRB) assay; format: cell-based; settings: Homo sapiens, Leukemia, single dose 10 µM, 48 h, read-out: Percent Growth Inhibition (GI)
Protocol: (§1) The antitumor assay was performed according to the protocol of the Drug Evaluation Branch, NCI, Bethesda. A 48 h drug exposure protocol was adopted, and sulforhodamine B (SRB) assay was utilized to assess the cell growth and viability, as reported earlier.
(§2) The inhibition results of tumor cell growth by the newly synthesized compounds (5a–5g) are described in Table 4. The reported measurements have been performed at the NIH National Cancer Institute, USA by a standardized assay including a panel of 60 different tumor cell lines (Supplementary Data). The following cancer cell types were included in these assays: Leukemia, non-small cell lung cancer, colon cancer, CNS cancer, melanoma, ovarian cancer, renal cancer, prostate, and breast cancer. […] Additionally, the 3,4-dimethoxy substituted compound (5b) also suffered poor activity against the cancer cell lines.

IGROV1 = test: NCI growth inhibition (SRB) assay; format: cell-based; settings: Homo sapiens, IGROV-1, IGROV1, Ovarian Cancer, single dose 10 µM, 48 h, read-out: Percent Growth Inhibition (GI)
Protocol: as §1, §2

KM12 = test: NCI growth inhibition (SRB) assay; format: cell-based; settings: Homo sapiens, KM12, Colon Cancer, single dose 10 µM, 48 h, read-out: Percent Growth Inhibition (GI)
Protocol: as §1, §2

HS 578T = test: NCI growth inhibition (SRB) assay; format: cell-based; settings: Homo sapiens, Breast Cancer, single dose 10 µM, 48 h, read-out: Percent Growth Inhibition (GI)
Protocol: as §1, §2

HL-60(TB) = test: NCI growth inhibition (SRB) assay; format: cell-based; settings: Homo sapiens, Leukemia, single dose 10 µM, 48 h, read-out: Percent Growth Inhibition (GI)
Protocol: as §1, §2

SNB-75 = test: NCI growth inhibition (SRB) assay; format: cell-based; settings: Homo sapiens, SNB-75, CNS Cancer, single dose 10 µM, 48 h, read-out: Percent Growth Inhibition (GI)
Protocol: as §1, §2

CAKI-1 = test: NCI growth inhibition (SRB) assay; format: cell-based; settings: Homo sapiens, CAKI-1, Renal Cancer, single dose 10 µM, 48 h, read-out: Percent Growth Inhibition (GI)
Protocol: as §1, §2

PC-3 = test: NCI growth inhibition (SRB) assay; format: cell-based; settings: Homo sapiens, PC-3, Prostate Cancer, single dose 10 µM, 48 h, read-out: Percent Growth Inhibition (GI)
Protocol: as §1, §2

786-0 = test: NCI growth inhibition (SRB) assay; format: cell-based; settings: Homo sapiens, 786-0, Renal Cancer, single dose 10 µM, 48 h, read-out: Percent Growth Inhibition (GI)
Protocol: as §1, §2

ACHN = test: NCI growth inhibition (SRB) assay; format: cell-based; settings: Homo sapiens, Renal Cancer, single dose 10 µM, 48 h, read-out: Percent Growth Inhibition (GI)
Protocol: as §1, §2

A498 = test: NCI growth inhibition (SRB) assay; format: cell-based; settings: Homo sapiens, A498, Renal Cancer, single dose 10 µM, 48 h, read-out: Percent Growth Inhibition (GI)
Protocol: as §1, §2

MCF7 = test: NCI growth inhibition (SRB) assay; format: cell-based; settings: Homo sapiens, MCF7, Breast Cancer, single dose 10 µM, 48 h, read-out: Percent Growth Inhibition (GI)
Protocol: as §1, §2

COLO 205 = test: NCI growth inhibition (SRB) assay; format: cell-based; settings: Homo sapiens, COLO 205, Colon Cancer, single dose 10 µM, 48 h, read-out: Percent Growth Inhibition (GI)
Protocol: as §1, §2

T-47D = test: NCI growth inhibition (SRB) assay; format: cell-based; settings: Homo sapiens, T47D, Breast Cancer, single dose 10 µM, 48 h, read-out: Percent Growth Inhibition (GI)
Protocol: as §1, §2

SF-539 = test: NCI growth inhibition (SRB) assay; format: cell-based; settings: Homo sapiens, SF-539, CNS Cancer, single dose 10 µM, 48 h, read-out: Percent Growth Inhibition (GI)
Protocol: as §1, §2

HT29 = test: NCI growth inhibition (SRB) assay; format: cell-based; settings: Homo sapiens, HT-29, HT29, Colon Cancer, single dose 10 µM, 48 h, read-out: Percent Growth Inhibition (GI)
Protocol: as §1, §2

K-562 = test: NCI growth inhibition (SRB) assay; format: cell-based; settings: Homo sapiens, K562, K-562, Leukemia, single dose 10 µM, 48 h, read-out: Percent Growth Inhibition (GI)
Protocol: as §1, §2

HCT-15 = test: NCI growth inhibition (SRB) assay; format: cell-based; settings: Homo sapiens, HCT-15, Colon Cancer, single dose 10 µM, 48 h, read-out: Percent Growth Inhibition (GI)
Protocol: as §1, §2

RPMI-8226 = test: NCI growth inhibition (SRB) assay; format: cell-based; settings: Homo sapiens, RPMI-8226, Leukemia, single dose 10 µM, 48 h, read-out: Percent Growth Inhibition (GI)
Protocol: as §1, §2

T1 sequence (P07333 20-972): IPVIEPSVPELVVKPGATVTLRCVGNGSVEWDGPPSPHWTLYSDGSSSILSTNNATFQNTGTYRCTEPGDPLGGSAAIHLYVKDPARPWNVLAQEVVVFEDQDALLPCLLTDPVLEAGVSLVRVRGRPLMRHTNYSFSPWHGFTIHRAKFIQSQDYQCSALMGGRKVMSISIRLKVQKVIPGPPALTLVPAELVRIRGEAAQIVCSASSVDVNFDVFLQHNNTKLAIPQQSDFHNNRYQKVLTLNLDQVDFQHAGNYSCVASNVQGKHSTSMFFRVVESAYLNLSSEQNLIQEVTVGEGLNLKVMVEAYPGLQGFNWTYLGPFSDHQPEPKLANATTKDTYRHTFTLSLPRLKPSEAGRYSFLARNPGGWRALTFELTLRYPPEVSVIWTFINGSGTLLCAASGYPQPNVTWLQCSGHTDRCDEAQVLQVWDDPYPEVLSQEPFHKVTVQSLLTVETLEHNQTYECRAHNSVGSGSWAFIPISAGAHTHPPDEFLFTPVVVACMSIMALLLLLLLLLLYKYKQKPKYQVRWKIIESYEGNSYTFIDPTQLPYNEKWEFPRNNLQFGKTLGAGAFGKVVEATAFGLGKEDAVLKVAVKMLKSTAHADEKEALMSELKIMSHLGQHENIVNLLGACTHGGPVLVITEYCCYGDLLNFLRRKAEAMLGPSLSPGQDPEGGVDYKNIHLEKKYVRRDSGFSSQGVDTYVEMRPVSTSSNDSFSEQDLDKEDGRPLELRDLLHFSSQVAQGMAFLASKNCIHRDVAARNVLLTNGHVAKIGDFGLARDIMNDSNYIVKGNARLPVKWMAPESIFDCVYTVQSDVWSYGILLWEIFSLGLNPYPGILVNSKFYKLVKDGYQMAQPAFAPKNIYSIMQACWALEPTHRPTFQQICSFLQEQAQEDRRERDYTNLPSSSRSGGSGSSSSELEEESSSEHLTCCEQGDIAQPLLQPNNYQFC

SMILES	inhibition at 10 µM (FMS) [%]	inhibition at 10 µM (SR) [%]	inhibition at 10 µM (IGROV1) [%]	inhibition at 10 µM (KM12) [%]	inhibition at 10 µM (HS 578T) [%]	inhibition at 10 µM (HL-60(TB)) [%]	inhibition at 10 µM (SNB-75) [%]	inhibition at 10 µM (CAKI-1) [%]	inhibition at 10 µM (PC-3) [%]	inhibition at 10 µM (786-0) [%]	inhibition at 10 µM (ACHN) [%]	inhibition at 10 µM (A498) [%]	inhibition at 10 µM (MCF7) [%]	inhibition at 10 µM (COLO 205) [%]	inhibition at 10 µM (T-47D) [%]	inhibition at 10 µM (SF-539) [%]	inhibition at 10 µM (HT29) [%]	inhibition at 10 µM (K-562) [%]	inhibition at 10 µM (HCT-15) [%]	inhibition at 10 µM (RPMI-8226) [%]	also measured
COc1ccc(Oc2nc(Nc3ccc(N4CCOCC4)cc3)ncc2NC(=O)c2ccc3c(c2)OCO3)cc1 [5a, N-(4-(4-Methoxyphenoxy)-2-((4-morpholinophenyl)amino)pyrimidin-5-yl)benzo[d][1,3]dioxole-5-carboxamide]	82.5 ± 0.6	37.1	5.92	12.7	6.26	16.2	-3.98	33.9	11.7	25.3	8.91	22.4	8.51	1.75	6.78	4.73	28.3	23.4	26	21.8	–
COc1ccc(Oc2nc(Nc3ccc(N4CCOCC4)cc3)ncc2NC(=O)c2ccc(OC)c(OC)c2)cc1 [5b, 3,4-Dimethoxy-N-(4-(4-methoxyphenoxy)-2-((4-morpholinophenyl)amino)pyrimidin-5-yl)benzamide]	44.1 ± 0.2	18.8	3.6	-4.34	5.09	16.4	-4.29	20.6	0.75	17.6	-7.28	-5.56	4.24	-2.21	2.41	-3.17	-2.93	8.76	12.3	11.1	–
COc1ccc(Oc2nc(Nc3ccc(N4CCOCC4)cc3)ncc2NC(=O)c2cc(OC)c(OC)c(OC)c2)cc1 [5c, 3,4,5-Trimethoxy-N-(4-(4-methoxyphenoxy)-2-((4-morpholinophenyl)amino)pyrimidin-5-yl)benzamide]	69.9 ± 0.4	64.4	11.9	3.99	3.23	31	3.59	28.1	11.6	44.2	4.83	38.3	7.94	21.6	0.52	7.64	47.4	20.4	34.4	18.8	–
CCOc1cc(OCC)cc(C(=O)Nc2cnc(Nc3ccc(N4CCOCC4)cc3)nc2Oc2ccc(OC)cc2)c1 [5d, 3,5-Diethoxy-N-(4-(4-methoxyphenoxy)-2-((4-morpholinophenyl)amino)pyrimidin-5-yl)benzamide]	95.1 ± 0.3	33.2	0.72	14	7.96	22.8	19.2	20.6	27.3	7.41	20.4	17.9	14.4	-2.11	18.4	8.01	9.54	30.7	13.2	25.6	IC50 (FMS; 10-dose, 3-fold serial dilution starting at 100 μM): 213 ± 1 nM; fold more potent than imatinib over FMS (FMS; from IC50 values): ~5 fold
COc1ccc(Oc2nc(Nc3ccc(N4CCOCC4)cc3)ncc2NC(=O)Cc2cc(OC)cc(OC)c2)cc1 [5e, 2-(3,5-Dimethoxyphenyl)-N-(4-(4-methoxyphenoxy)-2-((4-morpholinophenyl)amino)pyrimidin-5-yl)acetamide]	75.5 ± 0.8	13.2	-9.02	1.32	1.64	-6.34	-3.1	-2.58	8.05	0.75	-0.26	-6.85	18.9	-22.4	10.2	2.09	-8.47	2.31	1.13	11.3	–
COc1ccc(Oc2nc(Nc3ccc(N4CCOCC4)cc3)ncc2NC(=O)c2ccnc([N+](=O)[O-])c2)cc1 [5f, N-(4-(4-Methoxyphenoxy)-2-((4-morpholinophenyl)amino)pyrimidin-5-yl)-2-nitroisonicotinamide]	65.4 ± 0.1	27.4	1.91	-1.85	6.7	-3.19	-4.97	13.7	13.8	5.78	1.61	6.39	12.5	-14.6	5.93	7.72	-8.86	10.9	32.8	16.3	–

Reference: publication PMC8468039, “Development of New Meridianin/Leucettine-Derived Hybrid Small Molecules as Nanomolar Multi-Kinase Inhibitors with Antitumor Activity” (Biomedicines, 2021)
